Test [1] has as its target 11-beta-hydroxysteroid dehydrogenase 1 (Homo sapiens, UniProt P28845). Put plainly: Inhibition of human 11beta HSD1 by SPA assay.
In test [2] the target is 11-beta-hydroxysteroid dehydrogenase 1 (Mus musculus, UniProt P50172). Put plainly: Inhibition of mouse 11beta HSD1 by SPA assay.
Test [3] addresses T1, 11-beta-hydroxysteroid dehydrogenase type 2 (Homo sapiens, UniProt P80365).
T1 sequence (P80365 whole entry): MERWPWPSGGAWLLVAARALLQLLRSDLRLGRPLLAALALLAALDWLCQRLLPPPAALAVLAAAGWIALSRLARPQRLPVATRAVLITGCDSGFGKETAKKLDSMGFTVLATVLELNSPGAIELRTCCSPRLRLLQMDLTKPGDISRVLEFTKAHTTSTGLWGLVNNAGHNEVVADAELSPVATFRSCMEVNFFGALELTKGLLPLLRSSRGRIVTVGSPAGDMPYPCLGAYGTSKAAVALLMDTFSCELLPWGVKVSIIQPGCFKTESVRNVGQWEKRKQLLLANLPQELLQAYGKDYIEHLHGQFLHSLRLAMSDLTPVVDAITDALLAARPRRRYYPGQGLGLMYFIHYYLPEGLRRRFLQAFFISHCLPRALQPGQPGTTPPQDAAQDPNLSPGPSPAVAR
Put plainly: Inhibition of human 11beta HSD2.

The target in test [4] is T2, 11-beta-hydroxysteroid dehydrogenase type 2 (Mus musculus, UniProt P51661).
T2 sequence (P51661 whole entry): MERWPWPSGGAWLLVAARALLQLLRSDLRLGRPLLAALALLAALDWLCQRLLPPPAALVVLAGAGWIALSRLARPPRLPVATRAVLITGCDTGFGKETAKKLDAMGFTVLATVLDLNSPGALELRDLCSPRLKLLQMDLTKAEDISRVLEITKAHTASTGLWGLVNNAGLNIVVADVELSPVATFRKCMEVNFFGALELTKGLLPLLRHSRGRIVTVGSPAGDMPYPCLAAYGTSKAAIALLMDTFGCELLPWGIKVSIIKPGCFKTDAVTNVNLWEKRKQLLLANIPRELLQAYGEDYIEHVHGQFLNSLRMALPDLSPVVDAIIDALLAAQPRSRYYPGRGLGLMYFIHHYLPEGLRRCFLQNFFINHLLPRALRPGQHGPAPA
Put plainly: Inhibition of mouse 11beta HSD2.

Test [5] has as its system Mus musculus. In words: Inhibition of [3H]cortisone to [3H]cortisol conversion in mouse at 10 mg/kg, po administered as single dose after 1 hr. Format: functional.
Test [6] relates to Mus musculus. In words: Inhibition of [3H]cortisone to [3H]cortisol conversion in mouse at 10 mg/kg, po administered as single dose after 4 hrs. Type of test: functional.

By IC50 is commonly meant the concentration that gives 50% inhibition. The low end stands for inhibition by little substance, the high end for a need for much substance. Usually inhibition in vivo stands for the relative decrease from the control value, in per cent.

Sequence of 11-beta-hydroxysteroid dehydrogenase 1 (Mus musculus, UniProt P50172) (P50172 whole entry): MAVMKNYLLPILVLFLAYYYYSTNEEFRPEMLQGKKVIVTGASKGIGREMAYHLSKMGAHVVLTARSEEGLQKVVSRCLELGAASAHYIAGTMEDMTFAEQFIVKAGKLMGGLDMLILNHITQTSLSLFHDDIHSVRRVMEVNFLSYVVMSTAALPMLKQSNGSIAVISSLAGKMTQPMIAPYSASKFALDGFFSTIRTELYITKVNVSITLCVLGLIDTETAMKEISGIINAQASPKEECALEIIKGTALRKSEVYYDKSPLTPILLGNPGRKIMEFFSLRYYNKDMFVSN
Sequence of 11-beta-hydroxysteroid dehydrogenase 1 (Homo sapiens, UniProt P28845) (P28845 whole entry): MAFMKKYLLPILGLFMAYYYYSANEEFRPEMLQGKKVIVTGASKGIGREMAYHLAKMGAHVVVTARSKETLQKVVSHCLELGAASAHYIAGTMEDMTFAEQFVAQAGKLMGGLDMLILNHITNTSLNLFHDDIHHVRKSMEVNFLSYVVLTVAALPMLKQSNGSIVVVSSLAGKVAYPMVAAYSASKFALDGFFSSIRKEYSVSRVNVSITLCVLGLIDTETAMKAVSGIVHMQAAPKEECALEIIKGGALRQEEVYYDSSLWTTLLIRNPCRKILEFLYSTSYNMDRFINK

On to `Cc1ccccc1-c1nnc(C2(c3ccc(Cl)cc3)CCC2)n1C`, for which the IC50 in test [1] was 5 nM; in test [2], 21 nM; in test [3], more than 4000 nM; in test [4], more than 4000 nM. The inhibition in vivo at 10 mg/kg in the test with Mus musculus [5] turned out to be 9%; with Mus musculus [6], 1%.

For the compound `Cn1c(-c2ccc(Cl)cc2)nnc1C1(c2ccc(Cl)cc2)CCC1`, the IC50 was 2.7 nM in test [1], 43 nM in test [2], more than 4000 nM in test [3] and more than 4000 nM in test [4]. The inhibition in vivo at 10 mg/kg in the test with Mus musculus [5] was found to be 20%; in the test with Mus musculus [6], 14%.

Turning to `C1CCc2nnc(C34CC5CC(CC(C5)C3)C4)n2CC1`, the values for the IC50 in test [3] and in test [4] were more than 3000 nM and more than 10000 nM, respectively. Further, the figures for the inhibition in vivo at 10 mg/kg with Mus musculus [5] and with Mus musculus [6] were 31% and 21%, respectively.

Regarding `Cn1c(-c2ccc(Oc3ccccc3)cc2)nnc1C1(c2ccc(Cl)cc2)CCC1`, the IC50 in test [1] is 26 nM; in test [2], 3.7 nM; in test [3] it was more than 4000 nM; in test [4] it was more than 4000 nM.

For `Cn1c(-c2ccc(O)cc2)nnc1C1(c2ccc(Cl)cc2)CCC1`, the IC50 is 0.34 nM in test [1], 19 nM in test [2], more than 4000 nM in test [3] and more than 4000 nM in test [4]. For the same compound, the figures for the inhibition in vivo at 10 mg/kg in the test on Mus musculus [5] and in the test on Mus musculus [6] were 17% and 10%, respectively.

With `Cn1c(-c2cccc(-c3ccccc3)c2)nnc1C1(c2ccc(Cl)cc2)CCC1`, the IC50 in test [1] was 4.3 nM; in test [2], 56 nM; in test [3], more than 4000 nM; in test [4] it was more than 4000 nM. Also, the inhibition in vivo at 10 mg/kg in the test on Mus musculus [5] and in the test on Mus musculus [6] was -2% throughout.

With `COc1ccc(-c2nnc(C3(c4ccc(Cl)cc4)CCC3)n2C)cc1F`, the IC50 in test [1] is 3 nM; in test [2], 42 nM; in test [3] it was more than 4000 nM; in test [4], more than 4000 nM. Also, the inhibition in vivo at 10 mg/kg is 10% in the test on Mus musculus [5] and -1% with Mus musculus [6].

Consider `Cn1c(-c2ccc(C(C)(C)C)cc2)nnc1C1(c2ccc(Cl)cc2)CCC1`, for which the IC50 in test [1] was 14 nM; in test [2] it was 1.8 nM; in test [3] it was more than 4000 nM; in test [4], more than 4000 nM.

Regarding `Cn1c(-c2ccccc2OC(F)(F)F)nnc1C1(c2ccc(Cl)cc2)CCC1`, the IC50 in test [1] is 2.3 nM; in test [2] it was 4.1 nM; in test [3] it was more than 4000 nM; in test [4], more than 4000 nM. Besides, the inhibition in vivo at 10 mg/kg is 59% in the test with Mus musculus [5] and 44% in the test with Mus musculus [6].

Take `Cn1c(-c2ccc(I)cc2)nnc1C1(c2ccc(Cl)cc2)CCC1`: the IC50 is 3.8 nM in test [1], 8.2 nM in test [2], more than 4000 nM in test [3] and more than 4000 nM in test [4].

Turning to `Cn1c(-c2cccc(O)c2)nnc1C1(c2ccc(Cl)cc2)CCC1`, the IC50 in test [1] is 1 nM; in test [2] it was 19 nM; in test [3] it was more than 4000 nM; in test [4] it was more than 4000 nM.

`Cc1nc2ccccc2n1-c1ccc(-c2nnc(C3(c4ccc(Cl)cc4)CCC3)n2C)c(Cl)c1`: the IC50 in test [1] was 12 nM; in test [2], 57 nM; in test [4] it was more than 4000 nM.

As for `Cn1c(-c2ccc(-c3ccc(F)cc3)cc2)nnc1C1(c2ccc(Cl)cc2)CCC1`, the IC50 in test [1] is 11 nM; in test [2] it was 9.1 nM; in test [3], more than 4000 nM; in test [4], more than 4000 nM.

On to `Cn1c(-c2ccccc2C(F)(F)F)nnc1C1(c2ccc(Cl)cc2)CCC1`, for which the half-maximal inhibitory concentration (IC50) was 2 nM in test [1], 4 nM in test [2], more than 4000 nM in test [3] and more than 4000 nM in test [4]. Besides, the inhibition in vivo at 10 mg/kg in the test with Mus musculus [5] came out at 73%; in the test with Mus musculus [6], 63%.

With `Cn1c(-c2ccc(-n3cccc3)cc2)nnc1C1(c2ccc(Cl)cc2)CCC1`, the IC50 in test [1] is 3 nM; in test [2], 5.4 nM; in test [3], more than 4000 nM; in test [4], more than 4000 nM. In addition, the inhibition in vivo at 10 mg/kg with Mus musculus [5] was 41%; with Mus musculus [6], 28%.

For the compound `Cn1c(-c2ccc(Cc3ccccc3)cc2)nnc1C1(c2ccc(Cl)cc2)CCC1`, the IC50 in test [1] was 68 nM; in test [2], 18 nM; in test [3] it was more than 4000 nM; in test [4], more than 4000 nM. The inhibition in vivo at 10 mg/kg in the test on Mus musculus [5] is 20%; in the test on Mus musculus [6] it was -4%.

As to `Cn1c(-c2ccccc2F)nnc1C1(c2ccc(Cl)cc2)CCC1`, the IC50 in test [1] is 2 nM; in test [2] it was 21 nM; in test [3] it was more than 4000 nM; in test [4] it was more than 4000 nM.

As to `Cn1c(-c2ccc(Cl)cc2Cl)nnc1C1(c2ccc(Cl)cc2)CCC1`, the IC50 was 1 nM in test [1], 13 nM in test [2], more than 4000 nM in test [3] and more than 4000 nM in test [4].

Regarding `Cn1c(-c2cccc(OC(F)(F)F)c2)nnc1C1(c2ccc(Cl)cc2)CCC1`, the IC50 was 2.2 nM in test [1], 36 nM in test [2], more than 4000 nM in test [3] and more than 4000 nM in test [4].

`COc1ccccc1-c1nnc(C2(c3ccc(Cl)cc3)CCC2)n1C`: the IC50 in test [1] is 2.7 nM; in test [2], 7.8 nM; in test [3] it was more than 4000 nM; in test [4], more than 4000 nM. Further, the inhibition in vivo at 10 mg/kg amounted to 28% in the test on Mus musculus [5] and 12% in the test with Mus musculus [6].

Take `CSc1nccn1-c1ccc(-c2nnc(C3(c4ccc(Cl)cc4)CCC3)n2C)c(Cl)c1`: the IC50 in test [1] was 3.9 nM; in test [2], 3.9 nM; in test [4], more than 4000 nM.

As to `Cn1c(-c2ccc(C(F)(F)F)cc2)nnc1C1(c2ccc(Cl)cc2)CCC1`, the IC50 is 9.3 nM in test [1], 26 nM in test [2], more than 4000 nM in test [3] and more than 4000 nM in test [4].

Take `Cn1c(-c2cccc(Cl)c2)nnc1C1(c2ccc(Cl)cc2)CCC1`: the IC50 in test [1] was 1 nM; in test [2] it was 34 nM; in test [3] it was more than 4000 nM; in test [4] it was more than 4000 nM. For the same compound, the values for the inhibition in vivo at 10 mg/kg in the test on Mus musculus [5] and in the test on Mus musculus [6] were 24% and 12%, respectively.

Turning to `Clc1ccc(C2(c3nnc4n3CCCCCC4)CCC2)cc1`, the results for the IC50 in test [1], in test [3] and in test [4] were 1.3 nM, more than 4000 nM and more than 4000 nM, respectively.

Turning to `Cn1c(-c2ccc(F)cc2)nnc1C1(c2ccc(Cl)cc2)CCC1`, the IC50 in test [1] was 1.5 nM; in test [2] it was 101 nM; in test [3], more than 4000 nM; in test [4] it was more than 4000 nM.

Turning to `Cc1cn(-c2ccc(-c3nnc(C4(c5ccc(Cl)cc5)CCC4)n3C)c(Cl)c2)c(C)n1`, the IC50 was 6.9 nM in test [1], 7.2 nM in test [2] and more than 4000 nM in test [4].

Consider `Cn1c(-c2ccc(OC3CC3)cc2)nnc1C1(c2ccc(Cl)cc2)CCC1`, for which the IC50 was 10 nM in test [1], 2.2 nM in test [2], more than 4000 nM in test [3] and more than 4000 nM in test [4]. Besides, the inhibition in vivo at 10 mg/kg in the test with Mus musculus [5] and with Mus musculus [6] was 95% each time.

As for `Cn1c(-c2cccc(F)c2)nnc1C1(c2ccc(Cl)cc2)CCC1`, the IC50 in test [1] was 2.2 nM; in test [2], 163 nM; in test [3], more than 4000 nM; in test [4], more than 4000 nM.

These data come from ChEMBL document CHEMBL1150311, “4-Methyl-5-phenyl triazoles as selective inhibitors of 11beta-hydroxysteroid dehydrogenase type I” (Bioorg Med Chem Lett, 2008).
